Data from ChEMBL document CHEMBL5356973 (J Med Chem, 2023).
The source made the active and inactive calls. No cut-off for these calls is given here.

Key:
[1] = Toxicity in Kunming mouse assessed as effect on locomotor activity at 88 nmol/kg, sc measured after 20 to 180 mins by open field test; format: organism-based; conditions: in vivo, time 20-180 min
Mu-type opioid receptor [2] = molecular target: T1, Mu-type opioid receptor (Homo sapiens, UniProt P35372); test: Agonist activity at MOR (unknown origin) transfected in CHO cells co-expressing Galphaq15 assessed as increase in calcium mobilization by measuring maximal efficacy by Fluo-4AM dye based assay relative to control; format: functional, cell-based; conditions: filed as agonist
T1 sequence (P35372 whole entry): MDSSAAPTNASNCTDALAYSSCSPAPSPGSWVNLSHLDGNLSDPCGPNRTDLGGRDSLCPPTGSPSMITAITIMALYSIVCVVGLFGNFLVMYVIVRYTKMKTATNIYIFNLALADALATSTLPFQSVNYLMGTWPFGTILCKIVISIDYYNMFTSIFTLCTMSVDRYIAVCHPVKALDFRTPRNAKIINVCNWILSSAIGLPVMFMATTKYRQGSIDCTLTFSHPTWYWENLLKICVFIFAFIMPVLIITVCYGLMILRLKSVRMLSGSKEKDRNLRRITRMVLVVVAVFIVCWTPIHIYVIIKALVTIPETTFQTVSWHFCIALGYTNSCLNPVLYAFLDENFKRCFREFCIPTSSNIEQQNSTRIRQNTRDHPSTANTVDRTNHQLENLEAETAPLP

[3] = Ratio of AUC in brain to plasma in Kunming mouse at 1 mg/kg, iv measured upto 240 mins by LC-MS/MS analysis; format: ADME, organism-based; conditions: read-out: BPR
Mus musculus [4] = test: Antinociceptive activity in icv dosed Kunming mouse assessed as changes in tail flick latency measured for 360 mins by tail-flick test; format: functional
Mus musculus [5] = test: Antinociceptive activity in Kunming mouse assessed as changes in tail flick latency by measuring maximal possible effect at 0.88 nmol/kg, sc measured after 60 mins by tail-flick test; format: functional; conditions: 1 h
[6] = Induction of antinociceptive tolerance in Kunming mouse assessed as decrease in tail flick latency at 0.88 nmol/kg, sc administered once daily for 8 days and measured once daily by tail-flick test; format: toxicity, organism-based; conditions: in vivo, 192 h, time 8 day
Mu-type opioid receptor [7] = molecular target: T1, Mu-type opioid receptor; test: Agonist activity at MOR (unknown origin) transfected in CHO cells co-expressing Galphaq15 assessed as increase in calcium mobilization by Fluo-4AM dye based assay; format: functional, cell-based
Mus musculus [8] = test: Antinociceptive activity in Kunming mouse assessed as changes in tail flick latency by measuring maximal possible effect at 0.88 nmol/kg, sc measured after 30 mins by tail-flick test; format: functional; conditions: 0.5 h
Mus musculus [9] = test: Antinociceptive activity in Kunming mouse assessed as changes in tail flick latency by measuring time duration of action at 1 to 10 pmol, icv measured for 360 mins by tail-flick test; format: functional; conditions: dose 1-10 pmol, 6 h
[10] = Metabolic stability in mouse plasma assessed as degradation half life at 10 mM measured upto 480 mins by RP-HPLC analysis; format: ADME, cell-free
[11] = Toxicity in sc dosed 16 hrs fasted Kunming mouse assessed as constipation by measuring inhibition of gastrointestinal transit administered for 15 mins followed by charcoal meal and measured after 30 mins; format: organism-based; conditions: in vivo, 0.75 h, time 45 min
Mus musculus [12] = test: Antinociceptive activity in Kunming mouse assessed as changes in tail flick latency by measuring maximal possible effect at 0.88 nmol/kg, sc measured after 240 mins by tail-flick test; format: functional; conditions: 4 h
Mus musculus [13] = test: Antinociceptive activity in Kunming mouse assessed as changes in tail flick latency at 0.88 nmol/kg, sc pretreated with naltrindole at 10 nmol, icv for 10 mins followed by compound addition and measured for 360 mins by tail-flick test; format: functional, organism-based
Mus musculus [14] = test: Antinociceptive activity in Kunming mouse assessed as changes in tail flick latency at 0.88 nmol/kg, sc pretreated with nor-binaltorphimine at 10 nmol, icv for 30 mins followed by compound addition and measured for 360 mins by tail-flick test; format: functional, organism-based
Mus musculus [15] = test: Antinociceptive activity in Kunming mouse assessed as changes in tail flick latency at 0.88 nmol/kg, sc pretreated with naloxone methiodide at 5 nmol, icv for 10 mins followed by compound addition and measured for 360 mins by tail-flick test; format: functional, organism-based
Mus musculus [16] = test: Antinociceptive activity in Kunming mouse assessed as changes in tail flick latency at 0.009 nmol/kg, sc pretreated with 1-adamantanecarbonyl-RF-NH2 at 10 nmol, icv for 5 mins followed by compound addition and measured for 360 mins by tail-flick test; format: functional, organism-based
[17] = Toxicity in sc dosed Kunming mouse assessed as effect on naloxone-induced jumping response at 88 nmol/kg, sc administered every 8 hrs for 3 days followed by naloxone administration at 2 hrs post last dose and measured immediately by Nal-precipitated withdraw test; format: organism-based; conditions: in vivo, 74 h
[18] = molecular target: T2, Delta-type opioid receptor (Homo sapiens, UniProt P41143); test: Agonist activity at DOR (unknown origin) transfected in CHO cells co-expressing Galphaq15 assessed as increase in calcium mobilization by Fluo-4AM dye based assay; format: functional, cell-based
T2 sequence (P41143 whole entry): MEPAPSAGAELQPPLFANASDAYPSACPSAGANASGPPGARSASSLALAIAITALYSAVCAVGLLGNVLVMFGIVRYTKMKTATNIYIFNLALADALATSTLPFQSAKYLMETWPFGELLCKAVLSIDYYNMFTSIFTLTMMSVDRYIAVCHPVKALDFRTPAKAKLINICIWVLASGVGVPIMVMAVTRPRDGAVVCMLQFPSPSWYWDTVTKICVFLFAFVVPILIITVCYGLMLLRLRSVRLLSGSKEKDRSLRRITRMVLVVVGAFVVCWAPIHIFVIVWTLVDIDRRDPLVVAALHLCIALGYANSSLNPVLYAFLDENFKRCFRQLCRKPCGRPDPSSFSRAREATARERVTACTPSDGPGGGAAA

Mus musculus [19] = test: Antinociceptive activity in Kunming mouse assessed as changes in tail flick latency at 0.88 nmol/kg, sc pretreated with beta-funaltrexamine at 10 nmol, icv for 4 hrs followed by compound addition and measured for 360 mins by tail-flick test; format: functional, organism-based
Mus musculus [20] = test: Antinociceptive activity in Kunming mouse assessed as changes in tail flick latency by measuring maximal possible effect at 0.88 nmol/kg, sc measured after 120 mins by tail-flick test; format: functional; conditions: 2 h
[21] = Agonist activity at NPFF1R (unknown origin) transfected in CHO cells co-expressing Galphaq15 assessed as increase in calcium mobilization by measuring maximal efficacy by Fluo-4AM dye based assay relative to control; format: functional, cell-based; conditions: Homo sapiens, filed as agonist
[22] = molecular target: T3, Kappa-type opioid receptor (Homo sapiens, UniProt P41145); test: Agonist activity at KOR (unknown origin) transfected in CHO cells co-expressing Galphaq15 assessed as increase in calcium mobilization by measuring maximal efficacy by Fluo-4AM dye based assay relative to control; format: functional, cell-based; conditions: filed as agonist
T3 sequence (P41145 whole entry): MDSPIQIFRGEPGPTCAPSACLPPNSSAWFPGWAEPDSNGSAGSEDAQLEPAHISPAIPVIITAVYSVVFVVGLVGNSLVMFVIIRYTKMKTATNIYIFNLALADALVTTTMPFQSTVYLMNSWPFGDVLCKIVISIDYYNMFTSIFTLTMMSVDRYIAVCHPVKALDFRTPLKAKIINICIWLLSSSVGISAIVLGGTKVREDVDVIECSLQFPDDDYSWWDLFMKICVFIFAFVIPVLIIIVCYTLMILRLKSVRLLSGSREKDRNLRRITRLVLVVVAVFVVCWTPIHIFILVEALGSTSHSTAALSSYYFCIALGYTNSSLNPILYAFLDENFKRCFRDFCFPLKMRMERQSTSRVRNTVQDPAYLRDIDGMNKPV

[23] = Metabolic stability in mouse brain homogenate assessed as degradation half life at 10 mM measured upto 480 mins by RP-HPLC analysis; format: ADME, tissue-based
Mus musculus [24] = test: Antinociceptive activity in po dosed Kunming mouse assessed as changes in tail flick latency measured for 360 mins by tail-flick test; format: functional
Mus musculus [25] = test: Antinociceptive activity in Kunming mouse assessed as changes in tail flick latency by measuring maximal possible effect at 0.88 nmol/kg, sc measured after 20 mins by tail-flick test; format: functional
[26] = molecular target: T3, Kappa-type opioid receptor; test: Agonist activity at KOR (unknown origin) transfected in CHO cells co-expressing Galphaq15 assessed as increase in calcium mobilization by Fluo-4AM dye based assay; format: functional, cell-based
[27] = AUC in Kunming mouse plasma at 1 mg/kg, iv measured upto 240 mins by LC-MS/MS analysis; format: ADME, organism-based; set-up: time < 240 min, dose 1 mg/kg, route iv
[28] = molecular target: T4, Neuropeptide FF receptor 2 (Homo sapiens, UniProt Q9Y5X5); test: Agonist activity at NPFF2R (unknown origin) transfected in HEK293 cells co-expressing Galphaq15 assessed as increase in calcium mobilization by Fluo-4AM dye based assay; format: functional, cell-based
T4 sequence (Q9Y5X5 whole entry): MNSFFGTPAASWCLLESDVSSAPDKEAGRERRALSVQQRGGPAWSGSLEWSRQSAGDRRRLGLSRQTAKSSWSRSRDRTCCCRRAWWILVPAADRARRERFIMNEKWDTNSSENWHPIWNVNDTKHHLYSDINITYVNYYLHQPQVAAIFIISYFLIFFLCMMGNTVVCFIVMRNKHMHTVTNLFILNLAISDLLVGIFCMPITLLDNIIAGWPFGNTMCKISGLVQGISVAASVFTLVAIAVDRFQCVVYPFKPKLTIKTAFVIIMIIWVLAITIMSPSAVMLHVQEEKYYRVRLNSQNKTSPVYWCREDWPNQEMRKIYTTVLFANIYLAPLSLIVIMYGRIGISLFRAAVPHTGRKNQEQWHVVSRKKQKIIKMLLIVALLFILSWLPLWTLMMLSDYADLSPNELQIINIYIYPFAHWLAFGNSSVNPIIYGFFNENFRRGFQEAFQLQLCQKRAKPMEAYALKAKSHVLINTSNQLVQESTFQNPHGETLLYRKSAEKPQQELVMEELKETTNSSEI

Mus musculus [29] = test: Antinociceptive activity in Kunming mouse assessed as changes in tail flick latency by measuring time duration of action at 0.88 to 8.82 nmol/kg, po measured for 360 mins by tail-flick test; format: functional; conditions: dose 0.88-8.82 nmol/kg, 6 h
[30] = Toxicity in Kunming mouse assessed as effect on motor coordination at 88 nmol/kg, sc measured after 15 to 45 mins by rotarod test; format: organism-based; conditions: in vivo, time 15-45 min
Mus musculus [31] = test: Antinociceptive activity in sc dosed Kunming mouse assessed as changes in tail flick latency measured after 10 to 360 mins by tail-flick test; format: functional; conditions: time 10-360 min
[32] = Toxicity in Kunming mouse assessed as addiction behavior at 88 nmol/kg, sc administered for 3 days starting from day 2 and measured on day 5 by conditioned place preference test; format: organism-based; conditions: in vivo, 96 h, time 4 day
[33] = AUC in Kunming mouse brain at 1 mg/kg, iv measured upto 240 mins by LC-MS/MS analysis; format: ADME, organism-based; set-up: time < 240 min, dose 1 mg/kg, route iv; conditions: in vivo, 4 h
Mus musculus [34] = test: Antinociceptive activity in Kunming mouse assessed as changes in tail flick latency by measuring time duration of antinociceptive effect at 0.88 nmol/kg, sc by tail-flick test; format: functional
[35] = Toxicity in Kunming mouse assessed as reduction in respiration frequency at 88 nmol/kg, sc measured upto 100 mins by whole-body plethysmography; format: organism-based; conditions: in vivo, 1.667 h
[36] = molecular target: T4, Neuropeptide FF receptor 2; test: Agonist activity at NPFF2R (unknown origin) transfected in HEK293 cells co-expressing Galphaq15 assessed as increase in calcium mobilization by measuring maximal efficacy by Fluo-4AM dye based assay relative to control; format: functional, cell-based; conditions: filed as agonist
[37] = molecular target: T2, Delta-type opioid receptor; test: Agonist activity at DOR (unknown origin) transfected in CHO cells co-expressing Galphaq15 assessed as increase in calcium mobilization by measuring maximal efficacy by Fluo-4AM dye based assay relative to control; format: functional, cell-based; conditions: filed as agonist

With `CN1C(=O)CNC(=O)[C@H](N[C@@H](Cc2ccc(O)cc2)C(=O)O)CCCC/C=C\C[C@@H](C(=O)N2CCC[C@H]2C(=O)N[C@@H](CCC(N)=O)C(=O)N[C@@H](CCCNC(=N)N)C(=O)N[C@@H](Cc2ccccc2)C(N)=O)NC(=O)[C@@H]1Cc1ccccc1` the Activity [1] was “Non-Toxic”, the Emax (Mu-type opioid receptor [2]) was 98.1% and the Kp at 4 h [3] was 1.35. The Activity (Mus musculus [4]) was “Dose-Dependent Effect”, the ED50 (Mus musculus [4]; 6 h) was 1.38 pmol and the MPE (Mus musculus [5]) was 85.4%. The Activity [6] was “Non-Toxic”, the EC50 (Mu-type opioid receptor [7]) was 2.8 nM and the MPE (Mus musculus [8]) was 89.5%. The Time (Mus musculus [9]) was “<=360 min”, the half-life at 10000 µM [10] was 0.447 h and the ED50 [11] was 84 nmol/kg. For the same compound, the MPE (Mus musculus [12]) was 46.2%, the Activity (Mus musculus [13]) was “Active” and the Activity (Mus musculus [14]) was “inactive”. For the same compound, the Activity (Mus musculus [15]) was “inactive”, the Activity (Mus musculus [16]) was “Active” and the Activity [17] was “Non-Toxic”. The EC50 [18] was 56.2 nM, the Activity (Mus musculus [19]) was “inactive” and the MPE (Mus musculus [20]) was 58.9%. For the same compound, the Emax [21] was 93.7%, the Emax [22] was 99.2% and the half-life at 10000 µM [23] was 1.78 h. The Activity (Mus musculus [24]) was “Dose-Dependent Effect”, the ED50 (Mus musculus [24]; 6 h) was 0.00135 µmol/kg and the MPE (Mus musculus [25]) was 89.8%. It also gave an EC50 [26] of 169 nM, an AUC at 4 h [27] of 2270 ng·h/mL and an EC50 [28] of 144 nM. The Time (Mus musculus [29]) was “<=360 min”, the Activity [30] was “Non-Toxic” and the Activity (Mus musculus [31]) was “Dose-Dependent Effect”. For the same compound, the ED50 (Mus musculus [31]) was 1e-05 µmol/kg, the Activity [32] was “Non-Toxic” and the AUC [33] was 183.2 µg·min/g. For the same compound, the Time (Mus musculus [34]) was 360 min, the Activity [35] was “Non-Toxic” and the Emax [36] was 89.2%. For the same compound, the Emax [37] was 81.9%.
